From patent US9290529B2, “Carbonic anhydrase inhibitors and method of their production” (USTAV ORGANICKE CHEMIE A BIOCHEMIE AKADEMIE VED CESKE …, priority 2011, dated 2016)
Read-outs that look alike come from different tables or passages of the source.

Legend:
[1] = target: T1, human carbonic anhydrase IX (hCA IX) (Homo sapiens, UniProt Q16790); test: Colorimetric carbonic anhydrase inhibition assay (CO2 hydration, phenol red), hCA IX; assay type: biochemical; conditions: for Selectivity to hCA IX IC50 (hCA II)/IC50 (hCA IX): ratio of IC50 values
T1 construct: Construct contained the extracellular CA domain (amino acid residues 139-390) cloned into the pMT/BiP/V5-His vector; His tag (from vector pMT/BiP/V5-His) (C); BiP secretion signal (from vector pMT/BiP/V5-His) (N); made in house; host or cells: Drosophila expression system (Invitrogen), insect cells, secreted into SF 900 II medium
Method: The compounds were assayed for inhibition activity of two isoforms of human carbonic anhydrase: hCA II and hCA IX. The human carbonic anhydrase II (HCA II) was purchased from Sigma Aldrich (Cat. No. C6165) in the form of lyophilized protein, which was dissolved before use in 10 mmol·l^−1 HEPES pH 7.0 to a concentration of 300 μmol·l^−1 and further diluted as required. Human carbonic anhydrase IX (HCA IX) was prepared by recombinant expression system in insect (Drosophila expression system, Invitrogen). […] This protein was further purified from media by chelating chromatography carrier His-Select Nickel Affinity Gel (Sigma, Cat No. P6611) and gel chromatography (Superdex 200 GL 30/300, GE Healthcare) according to the manufacturer's recommendations.
The principle of the method is based on measuring the rate of acidification of the solution that is observed as the color-shift of the acid-base-indicator (fenol red). The reaction was conducted in a glass tube placed in an ice bath (0° C., all stock solutions and enzymes were kept at the same temperature). […] This was followed by a CO2 saturation (stream flow 50 ml/min.) using a needle (18 G) up to color transition of fenol-red from red to yellow (typically 60 seconds by default). […] End point of reaction was determined by visual comparison with reference tube containing acid-base indicator (0.01% (wt./vol.) Fenol-red) and the pH adjusted to 7.0. […] Molar activity was calculated according to the formula:
[formula] where tB is the time of negative control without enzyme and tS is the time measured with an enzyme sample (and inhibitor), nprot is the number of moles of protein present in the sample. The value of IC50 for the inhibitor concentration corresponds inhibitor contraction required to decrease the specific activity to half of the value of non-inhibited enzyme. Selectivity towards CA IX inhibitor was calculated as the ratio of IC50 values for inhibition of HCA II against the value of IC50 for inhibition CA IX enzyme.

HCT116 cells = test: Flow cytometric measurement of intracellular pH (pHi), HCT116 expressing CAIX; assay type: cell-based, human; conditions: for pHi: HCT116, carboranes at 1 μM, 24 hour incubation, control 7.516; for intracellular acidification in HCT116 cells: carboranes 1 μM versus acetazolamide 50 μM
Method: The effect of carborane CAIX (carbonic anhydrase IX) inhibitors was evaluated on colorectal cancer cell line HCT116 expressing CAIX enzyme versus CA IX negative cell line of T-lymphoblastic leukemia CCRF-CEM. Acetazolamide, a known inhibitor of CAIX, was used as a standard. HCT116/CCRF-CEM cells were cultivated in McCoy/RPMI Media supplemented with 10% FCS and antibiotics and seeded at high density ([…] per 3.5 cm dish) to induce pericellular hypoxia and thus stimulate CA IX expression. Measurement of pHi was assessed as described in Cianchi et al. [Cianchi F., et al. Selective inhibition of carbonic anhydrase IX decreases cell proliferation and induces […] apoptosis in human cancer cells. The Journal of Pharmacology and Experimental Therapeutics, 2010, Vol. 334, No. 3, 710-719].
[…] The pHi was measured by flow cytometry in cell cultures pretreated with 10 μM of pH sensitive probe carboxyseminaphtorhoda-fluor-1-acetoxymethyl ester (SNARF, Invitrogen, CA) for 15 min at 37° C. After incubation, the cells were washed twice with PBS. Because the addition of bicarbonate can affect pHi, all incubation and cell washes were performed in bicarbonate-free buffer. SNARF was excited at 488 nm and emitted at 580 and 640 nm. The ratio of the emission wavelengths at 640/580 nm was then used to estimate the pHi from a calibration curve. The calibration curve was prepared by nigericin clamp technique. In this method, after the SNARF labeling of untreated cells, aliquots of cell suspensions were re-suspended in a high potassium containing buffer at specific pH (usually 6.8, 7.0, 7.2, 7.4, 7.6 and 7.8). The cell suspensions were then clamped at a specific pH value by the addition of 0.03 μM nigericin (Sigma-Aldrich). Nigericin is a ionophore that allows the exchange of H for K ions, thus abolishing the pH gradient across the cell membrane. When the internal and external K concentrations are approximately equal, the pH rapidly equilibrates to the pH of the bathing solution. A total of 20,000 events were acquired on a FACS ARIA II flow cytometer (Becton. Dickinson) for further analysis.
The fluorescent ratio values (640/580 nm) calculated for each pH point were further used to construct calibration curve in Prism software (GraphPad Software, Inc., San Diego, Calif.), from which the pHi values in treated cells were determined (Table 3).

[2] = 0° C., HEPES pH 7.0, recombinant extracellular CA domain, read-out: IC50 (hCA IX)
[3] = reference value in legend of FIG. 34, read-out: IC 50 CAIX (figure legend)

1-methylenesulfamide-1,7-dicarba-closo-dodecaborane [CB-19]
IC50 [1, 2]: 2000 nM
Selectivity to hCA IX IC50 (hCA II)/IC50 (hCA IX) [1]: 4.45
pHi (HCT116 cells): 7.542

1-methylenesulfamide-3,3′-commo-bis(1,2-dicarba-3-cobalta(III)-closo-dodecabor)ate (1-) [CB-5]
IC50 [1, 2]: 40 nM
Selectivity to hCA IX IC50 (hCA II)/IC50 (hCA IX) [1]: 92.5
pHi (HCT116 cells): 7.483

1-methylenesulfamide-9-phenyl-1,2-dicarba-closo-dodecaborane and 1-methylene-sulfamide-12-phenyl-1,2-dicarba-closo-dodecaborane [CB-8]
IC50 [1, 2]: 370 nM
Selectivity to hCA IX IC50 (hCA II)/IC50 (hCA IX) [1]: 6.59
pHi (HCT116 cells): 7.112
intracellular acidification in HCT116 cells (HCT116 cells): better than acetazolamide

1-methylensulfamide-1,2-dicarba-closo-dodekaborane [CB-1]
IC50 [1, 2]: 370 nM
pHi (HCT116 cells): 7.561

1-sulfamide-closo-1-carbadodecaborate (1-) [CB-3]
IC50 [1, 2]: 3600 nM
pHi (HCT116 cells): 7.479

7-methylensulfamide-8-phenyl-(7,8-nido-dikarbaundekabor)ate (1-) [CB-6]
IC50 [1, 2]: 1080 nM
Selectivity to hCA IX IC50 (hCA II)/IC50 (hCA IX) [1]: 36.2
pHi (HCT116 cells): 7.192
intracellular acidification in HCT116 cells (HCT116 cells): better than acetazolamide

7-methylensulfamide-(7,8-nido-dicarbaundekaborate) (1-) [CB-2]
IC50 [1, 2]: 2600 nM
pHi (HCT116 cells): 7.572

8-butyloxysulfamide-3,3′-commo-bis(decahydro-1,2-dicarba-3-cobalta(III)-closo-dodekabor)ate (1-) [CB-16]
IC50 [1, 2]: 280 nM
Selectivity to hCA IX IC50 (hCA II)/IC50 (hCA IX) [1]: 2.43
IC50 [1, 3]: 280 nM
pHi (HCT116 cells): 7.563

8-diethyleneoxysulfamide-3,3′-commo-bis(decahydro-1,2-dicarba-3-cobalta(III)-closo-dodekabor)ate (1-) [CB-17]
IC50 [1, 2]: 350 nM
Selectivity to hCA IX IC50 (hCA II)/IC50 (hCA IX) [1]: 34.3
pHi (HCT116 cells): 7.571

8-ethylaminomethylsulfamide-8″-methoxy-3,3′-commo-bis(decahydro-1,2-dicarba-3-cobalta(III)-closo-dodecabor)ate (1-) [CB-15]
IC50 [1, 2]: 2000 nM
Selectivity to hCA IX IC50 (hCA II)/IC50 (hCA IX) [1]: 7.00
pHi (HCT116 cells): 7.343
intracellular acidification in HCT116 cells (HCT116 cells): better than acetazolamide

8-methylensulfamide-8″-methoxy-3,3′-commo-bis(1,2-dicarba-3-cobalta(III)-closo-dodecabor)ate (1-) [CB-4]
IC50 [1, 2]: 50 nM
Selectivity to hCA IX IC50 (hCA II)/IC50 (hCA IX) [1]: 100
IC50 [1, 3]: 50 nM
pHi (HCT116 cells): 7.538

8-propylenesulfamide-7-phenyl-(7,8-nido-dicarbaundecabor)ate (1-) [CB-13]
IC50 [1, 2]: 80 nM
Selectivity to hCA IX IC50 (hCA II)/IC50 (hCA IX) [1]: 48.8
pHi (HCT116 cells): 7.51

9-sulfamide-9′-amine-2,2′-commo-bis(1,7,9-trikarba-2-ferra(II)-kloso-dodekabor)ane [CB-12]
IC50 [1, 2]: 1490 nM
Selectivity to hCA IX IC50 (hCA II)/IC50 (hCA IX) [1]: 10.0
pHi (HCT116 cells): 7.704

10-sulfamide-9′-amine-2,2′-commo-(1,7,10-tricarba-1′,7′,9′-tricarba-2-ferra (II)-closo-dodekabor)ane [CB-10]
IC50 [1, 2]: 9680 nM
Selectivity to hCA IX IC50 (hCA II)/IC50 (hCA IX) [1]: 7.0
pHi (HCT116 cells): 7.688

Di(methylenesulfamide)-1,7-dicarba-closo-dodecaborane [CB-20]
IC50 [1, 2]: 490 nM
Selectivity to hCA IX IC50 (hCA II)/IC50 (hCA IX) [1]: 3.27
pHi (HCT116 cells): 7.561
